As a reminder, the MIC is the lowest concentration that inhibits growth of the organism.

From article PMC9573696, “Experimental Examination of Solubility and Lipophilicity as Pharmaceutically Relevant Points of Novel Bioactive Hybrid Compounds” (Molecules, 2022) come the findings set out here.

What all share (experiment): In vitro antifungal activity, microbroth dilution (MIC)
Common to all, as to type: cell-based
A general note: In broth dilution the organism is exposed to a series of concentrations in liquid medium.

For assay [1], the system named is C. parapsilosis ATCC 22019. The following applies: Lodderomyces parapsilosis, ATCC22019; C. parapsilosis ATCC 22019; 35 °C, 24 h; read-out: MIC. As for the experimental part:
(§1) The in vitro antifungal screening results of synthesized compounds was evaluated against three fungal strains: C. parapsilosis ATCC 22019, C. utilis 84, and C. glabrata 61L are summarized in Table 1.
(§2) The in vitro antifungal activity of the target compounds was measured by means of the minimal inhibitory concentrations (MIC) with fluconazole as the control drug. Procedure was carried out by the microbroth dilution method in 96-well plates according to the recommendations of the Clinical and Laboratory Standards Institute. The detailed information was reported previously. The investigated pathogenic species included C. parapsilosis ATCC 22019, C. utilis 84 and C. glabrata 61. The sensitivity was evaluated visually, after the incubation at 35 °C for 24 h and the value was compared with the growth density in the reference culture without the sample. Each test was conducted in triplicate.

For a further assay, the system named is C. utilis 84. To be noted: Williopsis jadinii; C. utilis 84; 35 °C, 24 h; read-out: MIC. As for the experimental part:
as §1, §2

A further assay has as its system C. glabrata 61L. The following applies: Nakaseomyces glabratus; C. glabrata 61L; 35 °C, 24 h; read-out: MIC. The procedure:
as §1, §2

≈ marks a conversion by molar mass, not a printed value.

With `OC(Cn1cncn1)(Cn1cncn1)c1ccc(F)cc1F` [Fluconazole, reference compound], the MIC in assay [1] is 2 µg/mL (≈ 6.53 µM); with C. utilis 84, 2 µg/mL (≈ 6.53 µM); with C. glabrata 61L, 8 µg/mL (≈ 26.1 µM).
